{"source": "patent US11944593B2", "about": "“Myrcene-containing complex mixtures targeting TRPV1” (GBS GLOBAL BIOPHARMA, INC., priority 2017, dated 2024)", "type_in_all_cases": "cell-based", "key": {"TRPV1 [1]": {"target": "T1, TRPV1 (Rattus norvegicus, UniProt O35433)", "T1 construct": "FLAG; expressed in transfected cells; host or cells: TRex HEK293 (HEK293 stably carrying pcDNA6TR), induced with tetracycline", "T1 sequence (O35433 whole entry)": "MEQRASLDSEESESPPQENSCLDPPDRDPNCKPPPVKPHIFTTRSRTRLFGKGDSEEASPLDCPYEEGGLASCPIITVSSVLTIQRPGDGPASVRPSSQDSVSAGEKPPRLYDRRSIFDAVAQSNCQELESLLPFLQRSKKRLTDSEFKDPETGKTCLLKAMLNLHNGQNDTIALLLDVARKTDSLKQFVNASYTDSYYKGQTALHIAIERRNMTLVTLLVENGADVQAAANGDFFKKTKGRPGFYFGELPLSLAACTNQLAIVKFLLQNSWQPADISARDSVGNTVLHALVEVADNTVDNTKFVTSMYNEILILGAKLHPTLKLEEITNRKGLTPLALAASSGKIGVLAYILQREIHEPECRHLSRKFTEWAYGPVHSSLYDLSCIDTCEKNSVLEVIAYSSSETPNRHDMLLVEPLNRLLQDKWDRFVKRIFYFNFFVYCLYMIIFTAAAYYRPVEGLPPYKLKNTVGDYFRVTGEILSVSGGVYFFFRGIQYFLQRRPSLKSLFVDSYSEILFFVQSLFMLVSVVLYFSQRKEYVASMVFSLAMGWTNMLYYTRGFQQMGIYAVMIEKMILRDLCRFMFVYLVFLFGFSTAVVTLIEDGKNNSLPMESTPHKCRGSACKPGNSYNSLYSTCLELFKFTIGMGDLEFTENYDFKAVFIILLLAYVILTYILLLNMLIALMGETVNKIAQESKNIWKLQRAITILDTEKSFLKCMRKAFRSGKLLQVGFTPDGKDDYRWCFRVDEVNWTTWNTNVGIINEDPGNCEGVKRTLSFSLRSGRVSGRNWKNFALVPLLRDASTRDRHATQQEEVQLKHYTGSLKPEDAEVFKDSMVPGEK", "assay": "TRPV1-mediated calcium flux (Fluo-4) in HEK cells inducibly expressing TRPV1", "settings": "for calcium flux (Fluo-4 RFU) in TRPV1-expressing HEK cells: stimulus applied to cell culture medium, mixtures at Table 1 concentrations; for suppression of later calcium response by pre-incubation (desensitization): 24 hours pre-incubation with the same compound; for AUC of calcium response curve, first application: AUC (between 20-300 nM), compound first introduced to TRPV1-expressing cells; for concentration inducing calcium influx to a similar degree (by AUC): AUC between 20 and 300 nM of calcium response curves; for AUC of calcium response after 24 hours incubation with the same compound: cells incubated with compound for 24 hours, then re-stimulated", "description": "The HEK293 cell line was stably transfected with the pcDNA6TR (Invitrogen, CA) plasmid (encoding the tetracycline-sensitive TREx repressor protein), and was maintained in DMEM+10% fetal bovine serum (inactivated at 55° C. for 1 h)+2 mM glutamine in humidified 5% CO2 atmosphere at 37° C. Selection pressure on the TRex 293 cells was maintained by continuous culture in 10 μg/ml Blasticidin (Sigma, St Louis, Mo.).\nFor production of TRex HEK293 cells with inducible expression of TRPV1, parental cells were electroporated with the rat TRPV1 cDNA in the pcDNA4TO vector and clonal cell lines were selected by limiting dilution in the presence of 400 μg/ml zeocin (Invitrogen, CA). TRPV1 expression was induced using 1 μg/ml tetracycline for 16 h at 37° C.\n(§1) Calcium responses mediated by TRPV1 were tested by calcium assay in the cell culture system. Cells were washed and incubated with 0.2 μM fluo-4 acetoxymethyl ester (“Fluo-4”) for 30 minutes at 37° C. in a standard modified Ringer's solution of the following composition (in mM): NaCl 145, KCl 2.8, CsCl 10, CaCl2 10, MgCl2 2, glucose 10, Hepes.NaOH 10, pH 7.4, 330 mOsm. Cells were transferred to 96-well plates at 50,000 cells/well and stimulated as indicated. Calcium signals were acquired using a Flexstation 3 (Molecular Devices, Sunnydale, USA). Data was analyzed using SoftMax® Pro 5 (Molecular Devices). Where indicated, nominally calcium-free external conditions were achieved by the preparation of 0 mM CaCl2 Ringer solution containing 1 mM EGTA. Where indicated, capsaicin (10 μM) and ionomycin (500 nM) were used as positive controls to induce calcium responses. Capsazepine (10 μM) was used where indicated to specifically antagonize TRPV1-mediated calcium responses. Where indicated, baseline traces (no stimulation, NS) were subtracted. Where indicated, vehicle alone traces were subtracted. Where indicated, vehicle comprising various diluents matched to corresponding mixtures was used as a negative control."}, "HEK wild type cells": {"test_system": "HEK wild type cells", "assay": "Calcium flux (Fluo-4) in wild-type HEK cells without TRPV1 construct", "settings": "same stimulus conditions as TRPV1-expressing cells", "description": "as §1"}, "TRPV1 [2]": {"target": "T1, TRPV1", "assay": "Whole-cell patch clamp in single HEK293 cells overexpressing TRPV1", "settings": "for outward current relative to inward current: then 1 μM capsaicin; for inward current: average of 6 independent experiments", "description": "HEK293 cells were kept in sodium-based extracellular Ringer's solution containing 140 mM NaCl, 1 mM CaCl2, 2 mM MgCl2, 2.8 mM KCl, 11 mM glucose, and 10 mM HEPES-NaOH, pH 7.2 and osmolarity 300 mOsmol. The cells' cytosol was perfused with intracellular patch pipette solution containing 140 mM Cs-glutamate, 8 mM NaCl, 1 mM MgCl2, 3 mM MgATP, and 10 mM HEPES-CsOH. The standard internal Ca^2+ concentration was buffered to 180 nM with 4 mM Ca and 10 mM BAPTA. The level of free unbuffered Ca was adjusted using the calculator provided with WebMaxC (http://www.stanford.edu/˜cpatton/webmaxcS.htm). The pH of the final solution was adjusted to pH 7.2 and osmolarity measured at 300 mOsmol.\n1 μM capsaicin was used as a positive control for TRPV1 activation. Rapid extracellular solution application and exchange was performed with the SmartSquirt delivery system (Auto-Mate Scientific, San Francisco). The system includes a ValveLink TTL interface between the electronic valves and the EPC-9 amplifier (HEKA, Lambrecht, Germany). This configuration allows for programmable solution changes via the PatchMaster software (HEKA, Lambrecht, Germany).\nPatch-clamp experiments were performed in the whole-cell configuration at 21-25° C. Patch pipettes had resistances of 2-3 MΩ. Data was acquired with PatchMaster software controlling an EPC-9 amplifier. Voltage ramps of 50 ms spanning the voltage range from −100 to 100 mV were delivered from a holding potential of 0 mV at a rate of 0.5 Hz over a period of […]. Voltages were corrected for a liquid junction potential of 10 mV. Currents were filtered at 2.9 kHz and digitized at 100 μs is intervals. Capacitive currents were determined and corrected before each voltage ramp. The development of currents for a given potential was extracted from individual ramp current records by measuring the current amplitudes at voltages of −80 mV and +80 mV. Data were analyzed with FitMaster (HEKA, Lambrecht, Germany), and IgorPro (WaveMetrics, Lake Oswego, Oreg., USA). Where applicable, statistical errors of averaged data are given as mean±s.e.m."}, "[3]": {"settings": "pre-incubation with 500 nM ionomycin"}}, "data": [{"smiles": "C=CC(C)(O)CCC=C(C)CCC=C(C)C", "note": "(centres unmarked) [nerolidol]", "values": [{"measurement": "calcium flux (Fluo-4 RFU) in TRPV1-expressing HEK cells", "setting": "TRPV1 [1]", "value": "significant calcium flux was detected"}, {"measurement": "calcium flux (Fluo-4 RFU) in TRPV1-expressing HEK cells", "setting": "TRPV1 [1]; listed as Nerolidol", "value": "more modest agonist activity"}]}, {"smiles": "C=C(C)[C@@H]1CCC(C)=C[C@H]1c1c(O)cc(CCCCC)cc1O", "note": "[cannabidiol]", "values": [{"measurement": "calcium flux (Fluo-4 RFU) in TRPV1-expressing HEK cells", "setting": "TRPV1 [1]", "value": "calcium flux was detected"}, {"measurement": "calcium flux in wild-type HEK cells without TRPV1", "setting": "HEK wild type cells", "value": "only minimal or absent"}]}, {"smiles": "C=CC(=C)CCC=C(C)C", "note": "[myrcene, 7-methyl-3-methylideneocta-1,6-diene]", "values": [{"measurement": "suppression of later calcium response by pre-incubation (desensitization)", "setting": "TRPV1 [1]", "value": 52, "unit": "%"}, {"measurement": "AUC of calcium response curve, first application", "setting": "TRPV1 [1]", "value": 66}, {"measurement": "concentration inducing calcium influx to a similar degree (by AUC)", "setting": "TRPV1 [1]", "value": "about 200 nM"}, {"measurement": "AUC of calcium response after 24 hours incubation with the same compound", "setting": "TRPV1 [1]", "value": 32}, {"measurement": "calcium-mediated fluorescence under calcium-free medium conditions, high concentration", "setting": "TRPV1 [1]; myrcene 3.5 μg/ml, calcium-free medium", "value": "induced such increase"}, {"measurement": "calcium-mediated fluorescence under calcium-free medium conditions, low concentrations", "setting": "TRPV1 [1]; myrcene 0.43, 0.875 and 1.75 μg/ml, calcium-free medium", "value": "did not cause increase of calcium-mediated fluorescence"}, {"measurement": "calcium responses to different concentrations of myrcene", "setting": "TRPV1 [1]; myrcene 3.5 μm/ml, 1.75 μg/ml, 0.875 μm/ml and 0.43 μm/ml", "value": "dose-dependent"}, {"measurement": "calcium flux (Fluo-4 RFU) in TRPV1-expressing HEK cells", "setting": "TRPV1 [1]", "value": "significant calcium flux was detected"}, {"measurement": "calcium flux in wild-type HEK cells without TRPV1", "setting": "HEK wild type cells", "value": "much smaller"}, {"measurement": "outward current relative to inward current", "setting": "TRPV1 [2]; 5 μM myrcene", "value": "at a lower amplitude than the inward current"}, {"measurement": "inward current", "setting": "TRPV1 [2]; 5 μM myrcene, 1 mM Ca", "value": "approximately 0.5 nA"}, {"measurement": "current induced", "setting": "TRPV1 [2]; 5 μM, 10 μM and 150 μM myrcene", "value": "0.5-2.2 nA"}, {"measurement": "current response in individual cells to increasing myrcene", "setting": "TRPV1 [2]; 5 μM, 10 μM, 150 μM myrcene", "value": "dose-dependent response"}, {"measurement": "TRPV1 channel permeation state activated", "setting": "TRPV1 [2]; IV relationship, State 1 vs State 2 (dilated)", "value": "primarily in State 1"}]}, {"smiles": "C=C(C)[C@@H]1CCC(C)=C[C@H]1c1c(O)cc(CCC)cc1O", "note": "[cannabidivarin]", "values": [{"measurement": "calcium flux (Fluo-4 RFU) in TRPV1-expressing HEK cells", "setting": "TRPV1 [1]", "value": "calcium flux was detected"}, {"measurement": "calcium flux in wild-type HEK cells without TRPV1", "setting": "HEK wild type cells", "value": "only minimal or absent"}]}, {"smiles": "Oc1cc2c(cc1O)CN(C(=S)NCCc1ccc(Cl)cc1)CCC2", "note": "[capsazepine, reference compound]", "values": [{"measurement": "effect on calcium flux induced by myrcene", "setting": "TRPV1 [1]; 10 μM capsazepine added to cells activated with 3.5 μm/ml myrcene", "value": "diminished"}]}, {"smiles": "COc1cc(CNC(=O)CCCC/C=C/C(C)C)ccc1O", "note": "[capsaicin, reference compound]", "values": [{"measurement": "suppression of later calcium response by pre-incubation (desensitization)", "setting": "TRPV1 [1]", "value": 69, "unit": "%"}, {"measurement": "AUC of calcium response curve, first application", "setting": "TRPV1 [1]", "value": 124}, {"measurement": "concentration inducing calcium influx to a similar degree (by AUC)", "setting": "TRPV1 [1]", "value": "about 30 nM"}, {"measurement": "AUC of calcium response after 24 hours incubation with the same compound", "setting": "TRPV1 [1]", "value": 38}, {"measurement": "calcium flux (Fluo-4 RFU) in TRPV1-expressing HEK cells", "setting": "TRPV1 [1]", "value": "capsaicin-specific calcium fluxes"}, {"measurement": "current induced", "setting": "TRPV1 [2]; 1 μM capsaicin (not shown)", "value": "4-10 nA"}, {"measurement": "inward current", "setting": "TRPV1 [2]; 1 μM capsaicin applied after myrcene", "value": "approximately 9 nA"}, {"measurement": "outward current relative to inward current", "setting": "TRPV1 [2]; 5 μM myrcene", "value": "at a lower amplitude than the inward current"}]}, {"smiles": "CCCCCc1cc(O)c(C/C=C(\\C)CCC=C(C)C)c(O)c1C(=O)O", "note": "[cannabigerolic acid]", "values": [{"measurement": "calcium flux (Fluo-4 RFU) in TRPV1-expressing HEK cells", "setting": "TRPV1 [1]", "value": "calcium flux was detected"}, {"measurement": "calcium flux in wild-type HEK cells without TRPV1", "setting": "HEK wild type cells", "value": "only minimal or absent"}]}, {"smiles": "C=C(C)[C@@H]1CCC(C)=C[C@H]1c1c(O)cc(CCCCC)c(C(=O)O)c1O", "note": "[cannabidiolic acid]", "values": [{"measurement": "calcium flux (Fluo-4 RFU) in TRPV1-expressing HEK cells", "setting": "TRPV1 [1]", "value": "calcium flux was detected"}, {"measurement": "calcium flux in wild-type HEK cells without TRPV1", "setting": "HEK wild type cells", "value": "only minimal or absent"}]}, {"smiles": "CCCCCc1cc(O)c2c(c1)OC(C)(CCC=C(C)C)C=C2", "note": "(centres unmarked) [cannabichromene]", "values": [{"measurement": "calcium flux (Fluo-4 RFU) in TRPV1-expressing HEK cells", "setting": "TRPV1 [1]", "value": "calcium flux was detected"}, {"measurement": "calcium flux in wild-type HEK cells without TRPV1", "setting": "HEK wild type cells", "value": "only minimal or absent"}]}, {"smiles": "C[C@H](CCC(=O)O)C[C@H](C)C[C@H](C)C(=O)/C=C(\\O)[C@H](C)C[C@H](C)C/C=C/[C@@H](C)[C@@H](O)[C@@H](C)[C@@H](O)C[C@@H]1CC[C@@](C)([C@H]2CC[C@@](C)([C@@H](C)O)O2)O1", "note": "[ionomycin, reference compound]", "values": [{"measurement": "AUC of calcium response curve, first application", "setting": "TRPV1 [1]", "value": 128}, {"measurement": "reduction of later calcium influx in response to capsaicin", "setting": "TRPV1 [1]; [3]", "value": 38, "unit": "%"}, {"measurement": "reduction of later calcium influx in response to myrcene", "setting": "TRPV1 [1]; [3]", "value": 27, "unit": "%"}]}]}
